Experimental data taken from article PMC8808171, “Nonselective TRPC channel inhibition and suppression of aminoglycoside-induced premature termination codon readthrough by the small molecule AC1903” (The Journal of Biological Chemistry, 2022).

Experiments:
TRPC3:C3 = target: T1, TRPC3:C3 (Homo sapiens, UniProt Q13507); experiment: [Ca2+]i recordings (Fura-2), TRPC3:C3 in HEK T-REx cells; format: cell-based
T1 construct: expressed in transfected cells
Protocol: Based on the findings described above, we wondered whether AC1903—which is typically used as a TRPC5 inhibitor at concentrations of 30–100 μM in cellular assays ([29], [56])—might have limited selectivity for TRPC5 channels and whether its effect on intracellular G418 levels and PTC readthrough might be the consequence of inhibition of other or multiple targets. All well-characterized TRPC channel inhibitors reported to date modulate multiple TRP(C) channels ([34], [35], [36]). […] Because limited data for the selectivity of AC1903 are available in the public domain, we decided to profile AC1903 against a selection of calcium-permeable cation channels by intracellular calcium ([Ca^2+]i) recordings using well-characterized cell lines and TRP channel activators ([46], [57], [58]), and the Ca^2+ indicator Fura-2. In these assays, cells (HEK 293, HEK T-REx, or CHO) overexpressing the relevant ion channel protein and loaded with Fura-2 AM (a cell-permeable precursor of Fura-2) were preincubated with various concentrations of AC1903 or vehicle (DMSO) for 30 min. Then, changes in ratiometric fluorescence (from background) were recorded upon addition of the respective ion channel activator. […]

TRPC4 = target: T2, TRPC4 (Homo sapiens, UniProt Q9UBN4); experiment: Whole-cell patch-clamp recordings of EA-activated TRPC4 currents in HEK T-REx cells; format: cell-based; conditions: EA 30 nM
T2 construct: expressed in transfected cells; host or cells: HEK T-REx (tetracycline-induced)
Protocol: B) Representative current–voltage relationship for one (Tet+) HEK T-Rex cell expressing TRPC4, showing current after activation by EA (30 nM) and subsequent inhibition by addition of AC1903 (10 μM). C, quantified data from experiments represented by (A) (scatter plots showing current amplitudes at +100 mV (black circles) or −100 mV (white circles) from three independent experiments; bars represent mean ± SD; n = 3). ∗ indicates statistically significant difference between samples according to paired t test (p < 0.05). EA, (-)-englerin A; TRPC, transient receptor potential canonical.
For electrophysiology experiments, cells were plated at a low density of 20 to 30% onto round coverslips (13 mm diameter or 5 × 5 mm), and TRPC4 expression in HEK T-REx was induced with 1 μg ml^−1 tetracycline 24 h before experimentation. Experiments were carried out at room temperature. […] The patch-clamp currents were recorded using an Axopatch 200B amplifier, digitized by a Digidata 1440 and recorded to a computer using pCLAMP10 (Molecular Devices). The data were filtered at 1 kHz and analyzed offline using Clampfit 10.7 software and Origin 2019b software (OriginLab). […]
Inhibition of G418-induced premature stop codon readthrough […]

T1 sequence (Q13507 whole entry): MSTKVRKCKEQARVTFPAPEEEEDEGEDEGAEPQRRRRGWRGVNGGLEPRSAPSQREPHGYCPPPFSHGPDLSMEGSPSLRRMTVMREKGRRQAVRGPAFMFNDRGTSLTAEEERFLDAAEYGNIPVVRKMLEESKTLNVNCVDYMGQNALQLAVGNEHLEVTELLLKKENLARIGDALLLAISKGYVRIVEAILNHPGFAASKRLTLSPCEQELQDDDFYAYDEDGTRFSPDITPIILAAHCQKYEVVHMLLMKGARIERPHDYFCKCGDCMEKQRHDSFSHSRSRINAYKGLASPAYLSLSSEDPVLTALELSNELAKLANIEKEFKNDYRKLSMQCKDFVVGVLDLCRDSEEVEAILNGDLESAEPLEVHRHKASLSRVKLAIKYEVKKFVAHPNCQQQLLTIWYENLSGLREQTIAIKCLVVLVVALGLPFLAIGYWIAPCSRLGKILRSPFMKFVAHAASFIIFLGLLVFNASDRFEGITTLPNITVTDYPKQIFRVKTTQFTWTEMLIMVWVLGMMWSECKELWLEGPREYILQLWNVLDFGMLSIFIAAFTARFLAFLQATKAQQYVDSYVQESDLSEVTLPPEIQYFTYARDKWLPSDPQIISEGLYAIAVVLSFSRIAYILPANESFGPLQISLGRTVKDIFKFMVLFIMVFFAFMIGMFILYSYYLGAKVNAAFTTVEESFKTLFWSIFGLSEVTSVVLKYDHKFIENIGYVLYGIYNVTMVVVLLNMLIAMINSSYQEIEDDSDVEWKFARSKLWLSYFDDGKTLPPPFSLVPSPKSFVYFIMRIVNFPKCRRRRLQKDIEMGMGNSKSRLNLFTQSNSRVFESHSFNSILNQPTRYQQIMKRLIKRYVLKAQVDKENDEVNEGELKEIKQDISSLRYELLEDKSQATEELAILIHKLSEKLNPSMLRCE
T2 sequence (Q9UBN4 1-893 isoform Q9UBN4-2): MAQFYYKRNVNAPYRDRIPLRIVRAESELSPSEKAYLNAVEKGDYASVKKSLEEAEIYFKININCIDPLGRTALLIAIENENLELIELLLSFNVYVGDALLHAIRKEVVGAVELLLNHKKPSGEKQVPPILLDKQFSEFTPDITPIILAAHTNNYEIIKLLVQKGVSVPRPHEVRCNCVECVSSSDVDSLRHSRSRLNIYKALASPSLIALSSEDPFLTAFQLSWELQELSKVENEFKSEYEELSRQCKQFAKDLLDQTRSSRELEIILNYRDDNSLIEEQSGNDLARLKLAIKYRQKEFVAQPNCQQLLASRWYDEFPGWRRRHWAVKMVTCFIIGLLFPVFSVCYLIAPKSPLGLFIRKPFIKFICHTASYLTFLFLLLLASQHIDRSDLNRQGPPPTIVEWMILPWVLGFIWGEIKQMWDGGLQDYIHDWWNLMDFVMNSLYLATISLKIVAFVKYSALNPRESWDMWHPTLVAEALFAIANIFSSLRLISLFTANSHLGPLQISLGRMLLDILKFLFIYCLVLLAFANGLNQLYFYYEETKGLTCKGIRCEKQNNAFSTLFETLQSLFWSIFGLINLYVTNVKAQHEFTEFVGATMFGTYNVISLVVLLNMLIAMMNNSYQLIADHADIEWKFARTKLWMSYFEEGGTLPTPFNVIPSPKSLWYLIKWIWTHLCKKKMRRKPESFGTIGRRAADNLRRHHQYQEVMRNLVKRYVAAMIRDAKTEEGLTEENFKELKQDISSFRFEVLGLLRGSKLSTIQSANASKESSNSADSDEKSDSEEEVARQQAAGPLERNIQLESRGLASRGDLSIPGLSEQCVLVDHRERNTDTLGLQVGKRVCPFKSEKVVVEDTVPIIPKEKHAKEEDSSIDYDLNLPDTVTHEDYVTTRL

In the case of `c1ccc(Cn2c(NCc3ccco3)nc3ccccc32)cc1` [AC1903], the IC50 (TRPC3:C3; HEK T-REx, activator OAG (100 μM)) is reported as 5.2 µM, the Hill slope (TRPC3:C3; activator OAG) is reported as -1.4 and the “inhibition of EA-activated currents” value (TRPC4; 10 μM AC1903, whole-cell patch clamp) is reported as “fully and reversibly inhibited”. The “inhibition of EA-activated TRPC4 currents, cumulative addition” value (TRPC4; AC1903 0.3–30 μM) was “concentration-dependent inhibition”.
